Like-named read-outs stand apart in the source and are kept apart here.
Columns and labels:
[1] = Two-photon absorption cross section; type: physicochemical; details: dichloromethane
Protocol: The two-photon absorption cross section spectra of the sample was determined upon direction comparison to Rhodamine B. The sample was irradiated with an OpoletteTM 355II (pulse width ≤ 100 fs, 80 MHz repetition rate, Spectra Physics Inc.) laser. The experimental excitation and detection conditions were conducted with negligible reabsorption processes, which could affect two-photon absorption measurements. The quadratic dependence of the two-photon induced luminescence intensity on the excitation power was verified at an excitation wavelength of 800 nm. The two-photon absorption cross section was calculated using the following equation:1 σ2,sample=σ2,reference×Φreference×creference×Isample×nsample/Φsample×csample×Ireference×nreference,
σ2 = two-photon cross section, Φ = luminescence quantum yield, c = concentration, I = integrated luminescence intensity, n = refractive index

[2] = system: human cervical carcinoma (HeLa) cells; assay: (Photo-)cytotoxicity on 2D cell monolayers, HeLa; type: cell-based; details: for IC50: 1-3 as chloride salts; for PI (480 nm): dark vs 480 nm; for PI (540 nm): dark vs 540 nm
Protocol: A total of 4 × 10^3 cells were seeded on 96-well plates and allowed to adhere overnight. The cells were treated with increasing concentrations of the sample diluted in cell media achieving a total volume of 200 μL. The cells were incubated with the sample for 8 h and, after this time, the medium refreshed. To study the phototoxic effect of the sample, the cells were exposed to 480 nm (spectral half-width: 20 nm, 10 min, 5.2 mW cm^−2, 3.1 J cm^−2) or 540 nm (spectral half-width: 30 nm, 40 min, 4.0 mW cm^−2, 9.5 J cm^−2) light using an Atlas Photonics LUMOS BIO irradiator. To study the dark cytotoxicity of the sample, the cells were not irradiated and the medium exchanged. The cells were grown for an additional 40 h at 37 °C. After this time, the medium was replaced with fresh medium containing resazurin with a final concentration of 0.2 mg mL^−1. The cells were incubated for 4 h and the amount of the fluorescent product resorufin determined (λex = 540 nm, λem = 590 nm) with a SpectraMax M2 Microplate Reader (Molecular Devices). The obtained data was analyzed with the GraphPad Prism software.

[3] = Excited state lifetime; type: physicochemical; details: for τ air, excited state lifetime: air saturated acetonitrile; for τ degassed, excited state lifetime: degassed acetonitrile
Protocol: The sample was prepared in an air saturated as well as a degassed acetonitrile solution with an absorption of 0.2 at 355 nm. The sample was irradiated at 355 nm with a NT342B Nd-YAG pumped optical parametric oscillator (Ekspla). The emission was focused at right angle to the excitation pathway and directed to a Princeton Instruments Acton SP-2300i monochromator. The signal was detected with a R928 photomultiplier tube (Hamamatsu).

[4] = system: HeLa MCTS; assay: (Photo-)cytotoxicity on 3D MCTS (ATP concentration); type: cell-based, human; details: for IC50: 1-3 as chloride salts; for PI (2P irradiation): dark vs 800 nm; for PI (1P irradiation): dark vs 500 nm
Protocol: The cytotoxicity of the compounds in 3D MCTS was assessed by measurement of the ATP concentration. MCTS were treated with increasing concentrations of the compound (2% DMSO, v%) by replacing 50% of the media with drug supplemented media and incubation for 12 h. After this time, the MCTS were divided in three identical groups. The first group was strictly kept in the dark. The second group was exposed to a 1-Photon irradiation (500 nm, 16.7 min, 10.0 mW cm^−2, and 10 J cm^−2) using a LED light source and the third group was exposed to a 2-Photon irradiation (800 nm, 10 J cm^−2 with a section interval of 5 μm) using a LSM 880 (Carl Zeiss, Germany) laser scanning confocal microscope equipped with a Coherent Chameleon 2-Photon laser. After the irradiation, all groups were incubated additional 48 h. The ATP concertation was measured using a CellTiter-Glo 3D Cell Viability kit (Promega) by measuring the generated chemiluminescence with an infinite M200 PRO (Tecan) plate reader.

[5] = 480 nm, read-out: IC50 480 nm (10 min, 3.1 J cm-2)
[6] = 540 nm, read-out: IC50 540 nm (40 min, 9.5 J cm-2)
[7] = 2P 800 nm, section interval 5 μm, read-out: IC50 2P irradiation (800 nm, 10 J cm-2)
[8] = 1P 500 nm, read-out: IC50 1P irradiation (500 nm, 10 J cm-2)

## C(=C\c1ccnc(-c2cc(/C=C/c3ccccc3)ccn2)c1)/c1ccccc1.C(=C\c1ccnc(-c2cc(/C=C/c3ccccc3)ccn2)c1)/c1ccccc1.C(=C\c1ccnc(-c2cc(/C=C/c3ccccc3)ccn2)c1)/c1ccccc1.F[P-](F)(F)(F)(F)F.F[P-](F)(F)(F)(F)F.[Ru+2] [compound 1]
[1]
  σ2, 2P absorption cross section: 147 GM
[2]; [5]
  IC50: 29.5 µM
[2]; [6]
  IC50: 48.7 µM
[2]
  PI (480 nm): > 3.4
  PI (540 nm): > 2.1
[2]; dark, read-out: IC50 dark
  IC50: > 100 µM
[3]
  τ air, excited state lifetime: 86 ns
  τ degassed, excited state lifetime: 385 ns

## CN(C)c1ccc(/C=C/c2ccnc(-c3cc(/C=C/c4ccc(N(C)C)cc4)ccn3)c2)cc1.CN(C)c1ccc(/C=C/c2ccnc(-c3cc(/C=C/c4ccc(N(C)C)cc4)ccn3)c2)cc1.CN(C)c1ccc(/C=C/c2ccnc(-c3cc(/C=C/c4ccc(N(C)C)cc4)ccn3)c2)cc1.F[P-](F)(F)(F)(F)F.F[P-](F)(F)(F)(F)F.[Ru+2] [compound 2, [Ru((E,E′)-4,4′-Bis[p-(N,N-dimethylamino)styryl]-2,2′-bipyridine)3][PF6]2]
[1]
  σ2, 2P absorption cross section: 2175 GM
[2]; [5]
  IC50: 29.4 µM
[2]; [6]
  IC50: 52.3 µM
[2]
  PI (480 nm): > 3.4
  PI (540 nm): > 1.9
[2]; dark, read-out: IC50 dark
  IC50: > 100 µM
[3]
  τ air, excited state lifetime: 48 ns
  τ degassed, excited state lifetime: 222 ns

## COc1ccc(/C=C/c2ccnc(-c3cc(/C=C/c4ccc(OC)cc4)ccn3)c2)cc1.COc1ccc(/C=C/c2ccnc(-c3cc(/C=C/c4ccc(OC)cc4)ccn3)c2)cc1.COc1ccc(/C=C/c2ccnc(-c3cc(/C=C/c4ccc(OC)cc4)ccn3)c2)cc1.F[P-](F)(F)(F)(F)F.F[P-](F)(F)(F)(F)F.[Ru+2] [compound 3, [Ru((E,E′)-4,4′-Bis[p-methoxystyryl]-2,2′-bipyridine)3][PF6]2]
[1]
  σ2, 2P absorption cross section: 573 GM
[2]; [5]
  IC50: 15.3 µM
[2]; [6]
  IC50: 11.3 µM
[2]
  PI (480 nm): > 6.5
  PI (540 nm): > 8.8
[2]; dark, read-out: IC50 dark
  IC50: > 100 µM
[4]; [7]
  IC50: 87.3 ± 6.8 µM
[4]
  PI (2P irradiation): > 1.1
[3]
  τ air, excited state lifetime: 76 ns
  τ degassed, excited state lifetime: 338 ns

## CN(C)c1ccc(/C=C/c2ccnc(-c3cc(/C=C/c4ccc(N(C)C)cc4)ccn3)c2)cc1.CN(C)c1ccc(/C=C/c2ccnc(-c3cc(/C=C/c4ccc(N(C)C)cc4)ccn3)c2)cc1.F[P-](F)(F)(F)(F)F.F[P-](F)(F)(F)(F)F.[Ru+2].c1ccc(-c2ccccn2)nc1 [compound 4, [Ru(2,2′-bipyridine)((E,E′)-4,4′-Bis[p-(N,N-dimethylamino)styryl]-2,2′-bipyridine)2][PF6]2]
[1]
  σ2, 2P absorption cross section: 838 GM
[2]; [5]
  IC50: 8.5 µM
[2]; [6]
  IC50: 10.6 µM
[2]
  PI (480 nm): > 11.8
  PI (540 nm): > 9.4
[2]; dark, read-out: IC50 dark
  IC50: > 100 µM
[4]; [8]
  IC50: 78.3 ± 5.1 µM
[4]; [7]
  IC50: 63 ± 4.2 µM
[4]
  PI (1P irradiation): > 1.3
  PI (2P irradiation): > 1.6
[3]
  τ air, excited state lifetime: 69 ns
  τ degassed, excited state lifetime: 417 ns

## COc1ccc(/C=C/c2ccnc(-c3cc(/C=C/c4ccc(OC)cc4)ccn3)c2)cc1.COc1ccc(/C=C/c2ccnc(-c3cc(/C=C/c4ccc(OC)cc4)ccn3)c2)cc1.F[P-](F)(F)(F)(F)F.F[P-](F)(F)(F)(F)F.[Ru+2].c1ccc(-c2ccccn2)nc1 [compound 5, [Ru(2,2′-bipyridine)((E,E′)-4,4′-Bis[p-methoxystyryl]-2,2′-bipyridine)2][PF6]2]
[1]
  σ2, 2P absorption cross section: 313 GM
[2]; [5]
  IC50: 6.4 µM
[2]; [6]
  IC50: 7.9 µM
[2]
  PI (540 nm): > 12.7
[2]; dark, read-out: IC50 dark
  IC50: > 100 µM
[4]; [8]
  IC50: 19.3 ± 2.7 µM
[4]; [7]
  IC50: 13.4 ± 3.9 µM
[4]
  PI (1P irradiation): > 5.2
  PI (2P irradiation): > 7.5
[3]
  τ air, excited state lifetime: 36 ns
  τ degassed, excited state lifetime: 231 ns

## CN(C)c1ccc(/C=C/c2ccnc(-c3cc(/C=C/c4ccc(N(C)C)cc4)ccn3)c2)cc1.F[P-](F)(F)(F)(F)F.F[P-](F)(F)(F)(F)F.[Ru+2].c1ccc(-c2ccccn2)nc1.c1ccc(-c2ccccn2)nc1 [compound 6, [Ru(2,2′-bipyridine)2((E,E′)-4,4′-Bis[p-(N,N-dimethylamino)styryl]-2,2′-bipyridine)][PF6]2]
[1]
  σ2, 2P absorption cross section: 349 GM
[2]; [5]
  IC50: 5.3 µM
[2]; [6]
  IC50: 5.8 µM
[2]
  PI (480 nm): > 18.9
  PI (540 nm): > 17.2
[2]; dark, read-out: IC50 dark
  IC50: > 100 µM
[4]; [8]
  IC50: 33.8 ± 3.4 µM
[4]; [7]
  IC50: 26.5 ± 2.9 µM
[4]
  PI (1P irradiation): > 8.9
  PI (2P irradiation): > 11.3
[4]; dark, read-out: IC50 dark
  IC50: > 300 µM
[3]
  τ air, excited state lifetime: 54 ns
  τ degassed, excited state lifetime: 405 ns

Source: publication PMC7320011, “Rationally designed ruthenium complexes for 1- and 2-photon photodynamic therapy” (Nature Communications, 2020)
